Assays:
Assay in all cases: cAMP accumulation
Type in all cases: cell-based
[1] = biological target: T1, GHRHR L62A (Homo sapiens, UniProt Q02643, L62A); details: Table S2, mean ± SEM
T1 construct: expressed in transfected cells; host or cells: HEK293T
Method: (§1) GHRH-stimulated cAMP accumulation was measured by a LANCE Ultra cAMP kit (PerkinElmer). Briefly, HEK293T cells (24 h after transfection with SV1 or GHRHR) or prostate cancer cells were digested by 0.2% (wt/vol) EDTA and washed once with Dulbecco’s phosphate-buffered saline (PBS). Cells were then resuspended with stimulation buffer (Hanks’ balanced salt solution [HBSS] supplemented with 5 mM HEPES, 0.5 mM IBMX, and 0.1% [wt/vol] bovine serum albumin [BSA], pH 7.4) to a density of 0.6 million cells per milliliter and added to 384-well white plates (3,000 cells per well). […] The reaction was stopped by adding 5 μL Eu-cAMP tracer and 5 μL ULight-anti-cAMP. After 1 h RT incubation, TR-FRET signals (excitation: 320 nm, emission: 615 and 665 nm) were measured by an Envision plate reader (PerkinElmer). cAMP concentrations were interpolated by a standard curve.
(§2) All functional study data were analyzed using Prism 7 (GraphPad) and presented as means ± SEM from at least three independent experiments. Concentration-response curves were evaluated with a three-parameter logistic equation. The significance was determined with either two-tailed Student’s t test or one-way ANOVA, and P < 0.05 is considered statistically significant.
(§3) Table S2. Effects of residue mutation or truncation in the ECD of GHRHR on GHRH-induced cAMP […]
(§4) Mutant pEC50 Emax (% WT GHRHR) expression ΔLog (τ/KA) […]
(§5) cAMP accumulation data were analyzed using a three-parameter logistic equation to determine pEC50 and Emax values. pEC50 is the negative logarithm of the molar concentration of agonist that induced half the maximal response. Emax for mutants is expressed as a percentage of the WT GHRHR. Data were analyzed by nonlinear regression using the operational model equation to determine t he logR values (logτ/KA, i.e., logarithm of the transduction ratio). τ is the effi cacy value of the agonist and was corrected by cell surface expression of the receptor. KA is dissociation constant. Changes in transduction ratio (ΔlogR) were calculated to determine the relative effectiveness of the mutants. All values are means ± S.E.M. of at le ast three ind ep en dent experiments (n = 3-5) conducted in quadruplicate. Statistical analysis was carried out by comparing the control responses in the WT GHRHR. **, P < 0.01 and ***, P < 0.001, determined by one-way

[2] = biological target: T2, GHRHR L34A (Homo sapiens, UniProt Q02643, L34A); details: Table S2, mean ± SEM
T2 construct: expressed in transfected cells; host or cells: HEK293T
T2 sequence (Q02643 23-423 L34A): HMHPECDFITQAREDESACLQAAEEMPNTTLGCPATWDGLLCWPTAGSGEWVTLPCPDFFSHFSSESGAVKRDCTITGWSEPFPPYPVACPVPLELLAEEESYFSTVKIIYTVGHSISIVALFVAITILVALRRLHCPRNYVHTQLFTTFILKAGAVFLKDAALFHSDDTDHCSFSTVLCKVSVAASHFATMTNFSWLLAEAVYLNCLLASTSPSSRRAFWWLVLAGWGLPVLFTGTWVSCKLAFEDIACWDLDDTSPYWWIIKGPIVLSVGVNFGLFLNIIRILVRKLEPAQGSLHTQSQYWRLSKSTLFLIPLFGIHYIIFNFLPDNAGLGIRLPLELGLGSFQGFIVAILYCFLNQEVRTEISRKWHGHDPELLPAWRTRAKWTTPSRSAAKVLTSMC
Method: as §1, §2, §3, §4, §5

[3] = biological target: T3, GHRHR Δ92 (Homo sapiens, UniProt Q02643); details: Table S2, mean ± SEM
T3 construct: expressed in transfected cells; host or cells: HEK293T
Method: as §1, §2, §3, §4, §5

[4] = biological target: T4, GHRHR Δ32 (Homo sapiens, UniProt Q02643); details: Table S2; operational model; τ corrected by cell surface expression; relative to WT GHRHR; mean ± SEM
T4 construct: expressed in transfected cells; host or cells: HEK293T
Method: Concentration-response curves were evaluated with a three-parameter logistic equation.

[5] = biological target: T5, SV1 (Homo sapiens, UniProt Q02643); details: mean ± SEM; for Emax: HEK-293T, HEK293T; for ΔLog (τ/KA): operational model, τ corrected by cell surface expression
T5 sequence (Q02643 90-423 limits assumed): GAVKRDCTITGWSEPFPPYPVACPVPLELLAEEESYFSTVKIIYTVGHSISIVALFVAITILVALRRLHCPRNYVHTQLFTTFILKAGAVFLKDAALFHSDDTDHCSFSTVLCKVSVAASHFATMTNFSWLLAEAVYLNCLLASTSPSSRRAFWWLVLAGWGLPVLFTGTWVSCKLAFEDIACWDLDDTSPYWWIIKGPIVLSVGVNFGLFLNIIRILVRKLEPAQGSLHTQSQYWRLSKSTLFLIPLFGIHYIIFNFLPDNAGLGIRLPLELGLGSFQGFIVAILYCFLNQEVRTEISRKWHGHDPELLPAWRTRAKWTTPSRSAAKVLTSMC
Method: as §1, §2, §3, §4
as §5, with “one-way […]” for “one-way”
(§6) Table S4. Effects of residue mutation in the ligand-binding pocket of SV1 on GHRH-induced cAMP […]
(§7) Mutant pEC50 Emax Cell surface expression ΔLog (τ/KA) […]
(§8) effectiveness of the mutants. All values are means ± S.E.M. of four independent experiments (n = 4) conducted in quadruplicate. Statistical analysis was carried out by comparing the control responses in the WT-SV1. *, P < 0.05, **, P < 0.01 and ***, P < 0.001, determined by one-way

[6] = biological target: T6, WT GHRHR (Homo sapiens, UniProt Q02643); details: for Emax: HEK-293T, HEK293T; for ΔLog (τ/KA): operational model, τ corrected by cell surface expression
T6 construct: Comparison of SV1 with full-length or truncated GHRHR that lacks ECD or the first 89 residues (B); expressed in transfected cells; host or cells: HEK293T
T6 sequence (Q02643 23-423): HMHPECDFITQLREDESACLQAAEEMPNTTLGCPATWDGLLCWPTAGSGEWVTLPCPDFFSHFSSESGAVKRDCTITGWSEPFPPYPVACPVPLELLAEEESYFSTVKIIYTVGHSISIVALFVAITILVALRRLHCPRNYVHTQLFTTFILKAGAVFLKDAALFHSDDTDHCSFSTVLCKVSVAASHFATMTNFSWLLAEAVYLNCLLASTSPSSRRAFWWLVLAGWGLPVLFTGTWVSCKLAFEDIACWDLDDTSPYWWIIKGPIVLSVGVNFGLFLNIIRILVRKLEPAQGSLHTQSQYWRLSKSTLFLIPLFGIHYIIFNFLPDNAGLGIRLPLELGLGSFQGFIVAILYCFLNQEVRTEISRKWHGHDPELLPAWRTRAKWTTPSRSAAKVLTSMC
Method: as §1, §2, §3, §4
as §5, with “one-way […]” for “one-way”
as §6, §7, §8

[7] = HEK-293T, HEK293T, n = 3-5 in quadruplicate
[8] = operational model, τ corrected by cell surface expression, relative to WT GHRHR
[9] = Table S4, n = 4 in quadruplicate

T1 sequence (Q02643 23-423 L62A): as the sequence (Q02643 23-423 L34A) above, with A12L, L40A counted along it

Structure (SMILES): CC[C@H](C)[C@H](NC(=O)[C@H](C)NC(=O)[C@H](CC(=O)O)NC(=O)[C@H](C)NC(=O)[C@@H](N)Cc1ccc(O)cc1)C(=O)N[C@@H](Cc1ccccc1)C(=O)N[C@H](C(=O)N[C@@H](CC(N)=O)C(=O)N[C@@H](CO)C(=O)N[C@@H](Cc1ccc(O)cc1)C(=O)N[C@@H](CCCNC(=N)N)C(=O)N[C@@H](CCCCN)C(=O)N[C@H](C(=O)N[C@@H](CC(C)C)C(=O)NCC(=O)N[C@@H](CCC(N)=O)C(=O)N[C@@H](CC(C)C)C(=O)N[C@@H](CO)C(=O)N[C@@H](C)C(=O)N[C@@H](CCCNC(=N)N)C(=O)N[C@@H](CCCCN)C(=O)N[C@@H](CC(C)C)C(=O)N[C@@H](CC(C)C)C(=O)N[C@@H](CCC(N)=O)C(=O)N[C@@H](CC(=O)O)C(=O)N[C@H](C(=O)N[C@@H](CCSC)C(=O)N[C@@H](CO)C(=O)N[C@@H](CCCNC(=N)N)C(=O)N[C@@H](CCC(N)=O)C(=O)N[C@@H](CCC(N)=O)C(=O)NCC(=O)N[C@@H](CCC(=O)O)C(=O)N[C@@H](CO)C(=O)N[C@@H](CC(N)=O)C(=O)N[C@@H](CCC(N)=O)C(=O)N[C@@H](CCC(=O)O)C(=O)N[C@@H](CCCNC(=N)N)C(=O)NCC(=O)N[C@@H](C)C(=O)N[C@@H](CCCNC(=N)N)C(=O)N[C@@H](C)C(=O)N[C@@H](CCCNC(=N)N)C(=O)N[C@@H](CC(C)C)C(N)=O)[C@@H](C)CC)C(C)C)[C@@H](C)O [GHRH, growth hormone–releasing hormone]
- Emax [1, 7]: 98 ± 2%
- ΔLog (τ/KA) [1, 8]: -1.03 ± 0.04
- Emax [2, 7]: 101 ± 2.23%
- ΔLog (τ/KA) [2, 8]: -0.78 ± 0.06
- Emax [3, 7]: 106 ± 2.38%
- ΔLog (τ/KA) [3, 8]: -3.78 ± 0.03
- ΔLog (τ/KA) [4]: -3.23 ± 0.04
- Emax [5, 9]: 102 ± 2.28%
- Emax ([5]; Table S2, n = 3-5 in quadruplicate): 105 ± 2.2%
- ΔLog (τ/KA) ([5]; Table S2, relative to WT GHRHR): -2.98 ± 0.04
- ΔLog (τ/KA) ([5]; Table S4, n = 4): -3.93 ± 0.10
- Emax [6, 9]: 100%
- Emax ([6]; Table S2, mean ± SEM, n = 3-5 in quadruplicate): 100 ± 1.81%
- ΔLog (τ/KA) ([6]; Table S2, relative to WT GHRHR, mean ± SEM): 0 ± 0.05
- ΔLog (τ/KA) ([6]; Table S4, mean ± SEM, n = 4): 0.00 ± 0.09
